We go through ten molecules from patent US20220169654A1, “New Organic Compounds” (Servier Pharmaceuticals LLC, priority 2020, published 2022).

Experiment [1] concerns the target T1, MAT2A homodimer (Homo sapiens, UniProt P31153).
T1 construct: inferred from Ni sepharose purification with imidazole elution; made in house; host or cells: Sf9 insect cells, baculovirus (Bac to Bac, pFASTBAC1)
The experiment is described as follows: MAT2A inhibition (biochemical, liberated phosphate, PiColorLock Gold). To be noted: recombinant MAT2A homodimer; IC50 bin with Max Inh.; read-out: Enzyme Inhibition Bin. How it is done: Mat2A protein was expressed by recombinant baculovirus in SF9 infected cells using the Bac to Bac system cloned into the pFASTBAC1 vector (Invitrogen, Carlsbad, Calif.). Recombinant MAT2A was isolated from the cell lysate of 150 g of infected cells using HP Ni sepharose column chromatography. Recombinant MAT2A homodimer was eluted with 250 and 500 mM imidazole, and fractions containing MAT2A were identified by sodium dodecyl sulfate polyacrylamide gel electrophoresis and pooled.
For determination of the inhibitory potency of compounds against the MAT2A homodimer, protein was diluted to 4 μg/mL in assay buffer (50 mM Tris, pH 8.0, 50 mM KCl, 15 mM MgCl2, 0.3 mM EDTA, 0.005% [w/v] bovine serum albumin [BSA]). Test compound was prepared in 100% dimethyl sulfoxide (DMSO) at 50× the desired final concentration. A 1 μL volume of compound dilution was added to 40 μL of enzyme dilution and the mixture was allowed to equilibrate for 60 minutes at 25° C. The enzymatic assay was initiated by the addition of 10 μL of substrate mix (500 μM ATP, pH 7.0, 400 μM L-methionine in 1× assay buffer), and the mixture was incubated for a further 60 minutes at 25° C. The reaction was halted and the liberated phosphate released by the enzyme in stoichiometric amounts by the production of S-adenosyl methionine (SAM) was measured using the PiColorLock Gold kit (Innova Biosciences, UK). Absolute product amounts were determined by comparison to a standard curve of potassium phosphate buffer, pH 8.0. The compounds were also tested in a secondary assay utilizing 1 μg/mL MAT2A and incubated for 5 hours at 25° C. before halting and processing as above.
Specific compounds disclosed herein were tested in the foregoing assay and they were determined to inhibit MAT2A with an IC50. See, Table 1 below.

Experiment [2] relates to HCT116 MTAP−/−. The experiment is described as follows: Inhibition of cellular proliferation, 4 days, Cell Titer Glo, HCT116 MTAP−/−. In kind it is cell-based. To be noted: Homo sapiens, HCT-116, 96 h, IC50 bin with Max Inh., read-out: 4 Day Relative Growth Inhibition (MTAP −/−). How it is done: (§1) Test compound impact on cancer cell growth was assessed by treating cancer cells with compound for 4 days and then measuring proliferation using an ATP-based cell proliferation readout (Cell Titer Glo, Promega Corporation).
(§2) In a typical assay an isogenic pair of HCT116 human colon carcinoma cell lines which vary only in MTAP deletion status (HCT116 MTAP+/+ and HCT116 MTAP−/−) were plated in 96-well dishes at appropriate cell density. Following 24 hours, cells were then treated with the candidate MAT2A inhibitor. Prior to addition to cells, the compound was first serially diluted in 100% DMSO, typically as a 3-fold serial dilution starting at 500× top dose with 10 dose points including DMSO only control. Compound was then transferred to a working stock plate in cell culture media by adding 5 μL of compound in DMSO to 495 μL of cell culture media. This working stock was then added to cells via a further 5-fold dilution, by adding 25 μL of working stock to 100 μL of cells in culture media. Following compound addition, cells were incubated at 37° C./5% CO2 for 4 days.
(§3) To measure inhibition of cellular proliferation, cells were allowed to equilibrate to room temperature for 30 minutes, and were then treated with 125 μL of Cell Titer Glo reagent. The plate was then covered with aluminum foil and shaken for 15 minutes to ensure complete mixing and full cell lysis. Luminescent signal was then measured using a plate-based luminometer Veritas version 1.9.2 using ATP standard curve to confirm assay reproducibility from run to run. This luminescence measure was converted to a proliferation index by subtracting from each data point the ATP luminescence signal measured from a bank (no cells) well and dividing by the ATP luminescence signal measured in 0.2% DMSO control well adjusted for signal in blank well. Compound activity was then represented as a percentage change in proliferation relative to a within-plate DMSO control against log 10 of compound concentration in molar (M) units.
(§4) Specific compounds disclosed herein were tested in the foregoing assay and they were determined to inhibit cellular proliferation with an IC50. See, Table 1 below.
(ATP-based viability assays read luminescence as a measure of living cells.)

Experiment [3] concerns HCT116 MTAP+/+. The experiment is described as follows: Inhibition of cellular proliferation, 4 days, Cell Titer Glo, HCT116 MTAP+/+. In kind it is cell-based. To be noted: Homo sapiens, HCT-116, 96 h, IC50 bin with Max Inh., read-out: 4 Day Relative Growth Inhibition (MTAP +/+). How it is done: as §1, §2, §3, §4
Experiment [4] has as its system SAM in HCT116 human colon carcinoma cell line with MTAP gene deleted (MTAP −/−). Kind of experiment: Cellular assay of target engagement (SAM), LC-MS/MS, 72 hrs. To be noted: HCT-116, IC50 bin with Max Inh., read-out: Cell 72 h SAM Inhibition (MTAP −/−). The experiment is classed as cell-based. How it is done: Measurement of MAT2A activity in cells was made by direct quantitation of the abundance of the product of its enzymatic activity, SAM. Cancer cells were treated with candidate MAT2A inhibitors for a suitable incubation period, and the cells were then lysed using a reagent which quenched any further enzyme activity. Soluble metabolites including SAM were collected and SAM itself was directly measured from the lysate using quantitative LC-MS/MS.
A typical assay was performed using an HCT116 human colon carcinoma cell line which was genetically engineered to delete the MTAP gene (commercially available from Horizon Discovery). This cell line was utilized because it was determined that loss of the MTAP gene predicts sensitivity to MAT2A inhibitors. Cells were plated in 96-well dishes at appropriate cell density. Following 24 hours, cells were then treated with the candidate MAT2A inhibitor. Prior to addition to cells, the compound was first serially diluted in 100% DMSO, typically as a 3-fold serial dilution starting at 500× top dose with 10 dose points including DMSO only control. Compound was then transferred to a working stock plate in cell culture media by adding 5 μL of compound in DMSO to 495 μL of cell culture media. This working stock was then added to cells via a further 5-fold dilution, by adding 25 μL of working stock to 100 μL of cells in culture media. Following compound addition, cells were incubated at 37° C./5% CO2 for 72 hrs.
To quantitate SAM levels following compound treatment, cells were gently washed once in ammonium carbonate buffer (75 mM at pH 7.4), placed on dry ice, and lysed with metabolite extraction buffer (80% cold methanol and 20% water (v/v) with acetic acid at 1M final concentration with 200 ng/mL deuterated d3-SAM as internal control). Following centrifugation at 4° C. at 3,200 rpm for 30 minutes, the supernatant was collected and stored at −80° C. until analysis by Liquid Chromatography with tandem Mass Spectrometry (LC-MS/MS). LC-MS/MS analysis was performed using an API6500 Mass Spectrometer (Sciex, Framingham, Mass., USA) operating in positive ion spray mode and equipped with a Waters UPLC Acquity (Waters, Milford, Mass., USA) BEH Amide column. Multiple Reaction Monitoring data was acquired for SAM and the d3-SAM standard, using a mass transition pair at m/z 399.2→250.1 and 402.2→250.1, respectively. In a typical LC-MS/MS analysis, the initial flow rate was 0.5 ml/min of 25% mobile phase A (acetonitrile and water at 5:95 (v/v) with 1% formic acid and 10 mM ammonium acetate) and 75% mobile phase B (acetonitrile and water at 95:5 (v/v) with 1% formic acid and 10 mM ammonium acetate), 0.2-0.5 minutes with 75%-35% mobile phase B, 25%-65% mobile phase A, at 0.5 min 65% mobile phase A and 35% mobile phase B, 1.0-1.1 minutes with 35%-75% mobile phase B, 65%-25% mobile phase A, at 1.1 min 25% mobile phase A and 75% mobile phase B with a total run time of 1.5 minutes.
Specific compounds disclosed herein were tested in the foregoing assay and they were determined to inhibit SAM with an IC50. See, Table 1 below.

Some results are limits rather than exact numbers.

T1 sequence (P31153 whole entry): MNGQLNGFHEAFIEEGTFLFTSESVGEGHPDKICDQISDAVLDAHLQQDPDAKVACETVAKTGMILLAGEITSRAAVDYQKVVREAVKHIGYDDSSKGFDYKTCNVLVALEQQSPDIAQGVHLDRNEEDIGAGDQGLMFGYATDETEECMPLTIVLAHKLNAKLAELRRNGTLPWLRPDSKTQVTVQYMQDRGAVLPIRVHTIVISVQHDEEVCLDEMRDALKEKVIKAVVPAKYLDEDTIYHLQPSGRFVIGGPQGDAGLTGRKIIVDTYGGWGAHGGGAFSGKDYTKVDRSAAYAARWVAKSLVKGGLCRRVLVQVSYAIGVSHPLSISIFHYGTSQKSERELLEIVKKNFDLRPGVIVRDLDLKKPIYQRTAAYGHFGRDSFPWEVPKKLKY

On to `Cc1ccc(-c2c(=O)n(-c3ccc4nn(C)cc4c3)nc3[nH]c(=O)n(CC4CC4)c23)cn1` [Example 207, 5-(cyclopropylmethyl)-2-(2-methyl-2H-indazol-5-yl)-4-(6-methylpyridin-3-yl)-2,7-dihydro-3H-imidazo[4,5-c]pyridazine-3,6(5H)-dione], for which the IC50 in experiment [1] was < 100 nM; in experiment [2], 100 to 1000 nM; in experiment [3] it was > 1000 nM; in experiment [4], < 100 nM.
As for `C#Cc1cn(CC2CC2)c2c(-c3ccc(C4CC4)nc3)c(=O)n(-c3ccc4nn(C)cc4c3)nc12` [Example 244, 5-(cyclopropylmethyl)-4-(6-cyclopropylpyridin-3-yl)-7-ethynyl-2-(2-methyl-2H-indazol-5-yl)-2,5-dihydro-3H-pyrrolo[3,2-c]pyridazin-3-one], the IC50 in experiment [1] was < 100 nM; in experiment [2], < 100 nM; in experiment [3] it was 100 to 1000 nM; in experiment [4], < 100 nM.
For the molecule `Cn1cc2cc(-n3nc4c(CC#N)cn(CC5CC5)c4c(-c4ccc(C5CC5)nc4)c3=O)ccc2n1` [Example 259, 2-(5-(cyclopropylmethyl)-4-(6-cyclopropylpyridin-3-yl)-2-(2-methyl-2H-indazol-5-yl)-3-oxo-3,5-dihydro-2H-pyrrolo[3,2-c]pyridazin-7-yl)acetonitrile], the IC50 in experiment [1] was < 100 nM; in experiment [2], < 100 nM; in experiment [3] it was > 1000 nM; in experiment [4], < 100 nM.
For the molecule `Cn1cc2cc(-n3nc4c(C(=O)O)cn(CC5CC5)c4c(-c4ccc(C5CC5)nc4)c3=O)ccc2n1` [Example 163, 5-(cyclopropylmethyl)-4-(6-cyclopropylpyridin-3-yl)-2-(2-methyl-2H-indazol-5-yl)-3-oxo-3,5-dihydro-2H-pyrrolo[3,2-c]pyridazine-7-carboxylic acid], the IC50 was < 1000 nM in experiment [1], 100 to 1000 nM in experiment [2], > 1000 nM in experiment [3] and > 1000 nM in experiment [4].
As to `Cn1cc2cc(-n3nc4ccn(CCC(F)(F)F)c4c(-c4ccc(OC(F)F)cc4)c3=O)ccc2n1` [Example 105, 4-(4-(difluoromethoxy)phenyl)-2-(2-methyl-2H-indazol-5-yl)-5-(3,3,3-trifluoropropyl)-2,5-dihydro-3H-pyrrolo[3,2-c]pyridazin-3-one], the IC50 is < 100 nM in experiment [1], < 100 nM in experiment [2], > 1000 nM in experiment [3] and < 100 nM in experiment [4].
`Cn1cc2cc(-n3nc4cnn(CC5CC5)c4c(-c4ccc(C5CC5)nc4)c3=O)ccc2n1` [Example 219, 1-(cyclopropylmethyl)-7-(6-cyclopropylpyridin-3-yl)-5-(2-methyl-2H-indazol-5-yl)-1,5-dihydro-6H-pyrazolo[4,3-c]pyridazin-6-one]: the IC50 in experiment [1] was < 100 nM; in experiment [2], 100 to 1000 nM; in experiment [3], 100 to 1000 nM; in experiment [4], 100 to 1000 nM.
`Cn1cc2cc(-n3nc4c(C#N)cn(CC5CC5)c4c(-c4ccc(OC(F)F)cc4)c3=O)ccc2n1` [Example 102, 5-(cyclopropylmethyl)-4-(4-(difluoromethoxy)phenyl)-2-(2-methyl-2H-indazol-5-yl)-3-oxo-3,5-dihydro-2H-pyrrolo[3,2-c]pyridazine-7-carbonitrile]: the IC50 in experiment [1] is < 100 nM; in experiment [2], < 100 nM; in experiment [3], > 1000 nM; in experiment [4], < 100 nM.
In the case of `Cn1cc2cc(-n3nc4c(C#N)cn(CC5CC5)c4c(-c4ccc(C5CC5)cc4)c3=O)ccc2n1` [Example 138, 5-(cyclopropylmethyl)-4-(4-cyclopropylphenyl)-2-(2-methyl-2H-indazol-5-yl)-3-oxo-3,5-dihydro-2H-pyrrolo[3,2-c]pyridazine-7-carbonitrile], the IC50 in experiment [1] was < 100 nM; in experiment [2], < 100 nM; in experiment [3], > 1000 nM; in experiment [4], < 100 nM.
Consider `COc1ccc(-c2c(=O)n(-c3ccc4nn(C)cc4c3)nc3c(C)nn(CC4CC4)c23)cc1` [Example 214, 1-(cyclopropylmethyl)-7-(4-methoxyphenyl)-3-methyl-5-(2-methyl-2H-indazol-5-yl)-1,5-dihydro-6H-pyrazolo[4,3-c]pyridazin-6-one], for which the IC50 in experiment [1] is < 100 nM; in experiment [2], < 100 nM; in experiment [3], 100 to 1000 nM; in experiment [4] it was < 100 nM.
On to `COc1ccc(-c2c(=O)n(-c3ccc4nn(C)cc4c3)nc3c(C#N)cn(CC4CC4)c23)cn1` [Example 111, 5-(cyclopropylmethyl)-4-(6-methoxypyridin-3-yl)-2-(2-methyl-2H-indazol-5-yl)-3-oxo-3,5-dihydro-2H-pyrrolo[3,2-c]pyridazine-7-carbonitrile], for which the IC50 in experiment [1] is < 100 nM; in experiment [2], < 100 nM; in experiment [3], > 1000 nM; in experiment [4], < 100 nM.
